According to US20260125426A1, “CYCLIC CELL-PENETRATING PEPTIDES AND USES THEREOF” (Ohio State Innovation Foundation, priority 2022, published 2026):
“And” between values parts separate entries of the source, which are not always exact repeats. Equal entries are not always repeated. *1 amine or outer side, *2 acyl side, *3 side chain or, on linkers, in order; H or OH if unused. Bridges are numbered along the chain shown (N, C = ends). Bi = bismuth bicyclization of the Cys thiols (peptides reacted with BiBr3), [Bi]([*:1])([*:2])[*:3]; Lys(NF) = lysine with naphthofluorescein (NF) attached to its side chain; Lys(dye) = not defined here; AEEA = NCCOCCOCC(=O)O

Columns and labels:
[1] = system: HeLa cells; experiment: Flow cytometry of HeLa cells, cytosolic entry of NF-labeled peptides; type: cell-based; settings: for MFI^NF (Cytosolic Entry) / cytosolic entry efficiency in the presence of 10% FBS: 2 h, 37° C.; for MFI^NF (Cytosolic Entry): relative to CPP12 (100%); for cytosolic entry efficiency in the presence of 10% FBS: relative to CPP12
Protocol: (§1) Flow cytometry. HeLa cells were cultured in 12-well plates (1.5×10^5 cells/well) overnight. The following day, cells were incubated with 5 μM fluorescently labeled peptide for 2 h in DMEM supplemented with 1% FBS and 1% antibiotic solution. DMSO was used as a negative control. After incubation, cells were detached from plate with 350 μL of 0.25% Trypsin-EDTA solution, diluted with Dulbecco's phosphate buffered saline (DPBS), and pelleted at 300 g for 5 min. Cells were washed twice with DPBS, resuspended in DPBS, and analyzed on a BD FACS LSR II flow cytometer.
(§2) To evaluate their cell entry efficiencies, the BCPs and pBCPs were labeled with tetramethylrhodamine (TMR) or naphthofluorescein (NF) on a C-terminal lysine residue (FIGS. 2A, 2B, and 4). […] The labeled peptides were purified again by reversed-phase HPLC and their authenticity was confirmed by high-resolution mass spectrometry.
(§3) HeLa cells were treated with 5 μM dye-labeled BCPs (or pBCPs), CPP12, Tat, or DMSO (equal volume) for 2 h at 37° C., washed to remove any peptides in the medium, and analyzed by flow cytometry. The mean fluorescence intensity (MFI) value of TMR (which is pH insensitive) reflects the total amount of CPP inside the HeLa cells (total cellular uptake). On the other hand, NF is a pH sensitive dye, having an apparent pKa of 7.8. NF is unprotonated and fluorescent inside the neutral environment of the cytosol (and nucleus) but is nearly completely protonated and nonfluorescent in the acidic environments of endosomes and lysosomes. Thus, the MFI value of NF provides a convenient estimate of the peptides that have reached the cytosol.
Note that cell entry assays were performed by treating HeLa cell with 2 μM naphthofluorescein (NF)-labeled peptide for 2 h at 37° C. Under this condition, the BCPs enter the cell almost exclusively by endocytosis and endosomal escape. A small fraction of the CPP12^NF-treated cells (˜10%) underwent direct translocation of CPP12^NF; this fraction of highly fluorescent cells was not included in the data analysis. The cellular entry of pBCP427-4 was confirmed by live-cell confocal microscopy (FIG. 6).
BCP16a, BCP16b, and pBCP427-4a were labeled with NF and their cytosolic entry efficiencies were assessed by flow cytometry analysis of HeLa cells after treatment with 2 μM peptide at 37° C. for 2 h. […] CPP12 was previously shown to be highly sensitive to serum proteins (Buyanova, M., et al., (2022). Discovery of a Cyclic Cell-Penetrating Peptide with Improved Endosomal Escape and Cytosolic Delivery Efficiency. Molecular pharmaceuties, 19 (5). 1378-1388).

[2] = system: HeLa cells; experiment: Flow cytometry of HeLa cells, total cellular uptake of TMR-labeled peptides; type: cell-based; settings: 5 μM TMR-labeled peptide, 2 h, 37° C., relative to CPP12 (100%)
Protocol: as §1, §2, §3

[3] = 2 μM NF-labeled peptide, 1% FBS

Row | Compound | MFI^NF (Cytosolic Entry) ([1]; 5 μM NF-labeled peptide) | MFI^NF (Cytosolic Entry) [1, 3] | also measured
1 | CYYRRCRAC (Ac-CYYRRCRAC-{AEEA-Lys(dye)-NH2}; linker 1-6-9 via Bi (inferred); reading uncertain) [pBCP15] | 16 ± 3% |  | 
2 | CRRRWYWCAAC (Ac-CRRRWYWCAAC-{AEEA-Lys(dye)-NH2}; linker 1-8-11 via Bi (inferred); reading uncertain) [pBCP8] |  |  | MFI^TMR (Total Cellular Uptake) [2]: 8.4%
3 | CARCRRYWC (Ac-CARCRRYWC-{AEEA-Lys(dye)-NH2}; linker 1-4-9 via Bi (inferred); reading uncertain) [pBCP5] |  |  | MFI^TMR (Total Cellular Uptake) [2]: 9.2%
4 | CFFRRRCRAC (Ac-CFFRRRCRAC-{AEEA-Lys(dye)-NH2}; linker 1-7-10 via Bi (inferred); reading uncertain) [pBCP16] | 15 ± 1% |  | 
5 | Ac-CWSNWFCQRRC (Ac-CWSNWFCQRRC-{AEEA-Lys(NF)-NH2}; linker 1-7-11 via Bi (inferred)) [pBCP427-6] |  | 65 ± 1% | 
6 | Ac-CRRRφRFCQWC [BCP9A5-1] |  | 30 ± 1% | 
7 | CFWRCRRC (Ac-CFWRCRRC-{AEEA-Lys(dye)-NH2}; linker 1-5-8 via Bi (inferred); reading uncertain) [pBCP6] |  |  | MFI^TMR (Total Cellular Uptake) [2]: 9.0 ± 0.7%
8 | CRRCRWFC (Ac-CRRCRWFC-{AEEA-Lys(dye)-NH2}; linker 1-4-8 via Bi (inferred); reading uncertain) [pBCP7] |  |  | MFI^TMR (Total Cellular Uptake) [2]: 10 ± 0.1%
9 | Ac-CWSNWFCFQRRCRRF (Ac-CWSNWFCFQRRCRRF-{AEEA-Lys(NF)-NH2}; linker 1-7-12 via Bi (inferred)) [pBCP427-1] |  | 94 ± 22% | 
10 | Ac-CΣΦRRCrrC [BCP9] | 43% |  | 
11 | Ac-CRRRRCΦFC [BCP2] |  |  | MFI^TMR (Total Cellular Uptake) [2]: 15 ± 4%
12 | CWYRRCRAC (Ac-CWYRRCRAC-{AEEA-Lys(dye)-NH2}; linker 1-6-9 via Bi (inferred); reading uncertain) [pBCP4] | 10 ± 4% |  | MFI^TMR (Total Cellular Uptake) [2]: 11 ± 1%
13 | Ac-CFΦRRCrrC [BCP8] | 38 ± 1% |  | 
14 | CWSNWFCFQRRCRRFA (Ac-CWSNWFCFQRRCRRFA-{AEEA-Lys(dye)-NH2}; linker 1-7-12 via Bi (inferred); reading uncertain) [pBCP427] | 41% and 41 ± 5% | 131 ± 1% | 
15 | Ac-CFΦRRCRRC [BCP3] |  |  | MFI^TMR (Total Cellular Uptake) [2]: 13 ± 2%
16 | HS-CH2-CO-φSNφFCfQrRCRrFa [BCP427-1] |  | 84 ± 2% | 
17 | CARCRRRWYWC (Ac-CARCRRRWYWC-{AEEA-Lys(dye)-NH2}; linker 1-4-11 via Bi (inferred); reading uncertain) [pBCP3] |  |  | MFI^TMR (Total Cellular Uptake) [2]: 3%
18 | Ac-CWSNWFCFQRRCR (Ac-CWSNWFCFQRRCR-{AEEA-Lys(NF)-NH2}; linker 1-7-12 via Bi (inferred)) [pBCP427-3] |  | 101 ± 3% | 
19 | Ac-CWSNWFCFQRRCRR (Ac-CWSNWFCFQRRCRR-{AEEA-Lys(NF)-NH2}; linker 1-7-12 via Bi (inferred)) [pBCP427-2] |  | 45 ± 1% | 
20 | CWYRCRRC (Ac-CWYRCRRC-{AEEA-Lys(dye)-NH2}; linker 1-5-8 via Bi (inferred); reading uncertain) [pBCP13] | 11 ± 1% |  | 
21 | CWYRRRCAC (Ac-CWYRRRCAC-{AEEA-Lys(dye)-NH2}; linker 1-7-9 via Bi (inferred); reading uncertain) [pBCP12] | 12 ± 1% |  | 

Row | Compound | MFI^NF (Cytosolic Entry) ([1]; 5 μM NF-labeled peptide) | MFI^NF (Cytosolic Entry) [1, 3] | also measured
22 | Ac-CrRrRCΦfFC [BCP5] | 45 ± 1% |  | 
23 | CWYWRRCRAC (Ac-CWYWRRCRAC-{AEEA-Lys(dye)-NH2}; linker 1-7-10 via Bi (inferred); reading uncertain) [pBCP10] | 17% and 17 ± 2% |  | cytosolic entry, fold less active than CPP12 ([1]; 5 μM): 6 fold; cytosolic entry, fold more active than Tat ([1]; 5 μM): 5 fold
24 | CWYCRRRC (Ac-CWYCRRRC-{AEEA-Lys(dye)-NH2}; linker 1-4-8 via Bi (inferred); reading uncertain) [pBCP11] | 14 ± 1% |  | 
25 | AWYRRARAA [pBCP4a, linear variant of pBCP4, three cysteine residues replaced with Ala] | 5.4% |  | cytosolic entry, fold less active than pBCP4 ([1]; 5 μM, linear Ala variant vs cyclized peptide): ~2 fold
26 | CC(=O)N[C@@H](C)C(=O)N[C@@H](Cc1c[nH]c2ccccc12)C(=O)N[C@@H](CO)C(=O)N[C@@H](CC(N)=O)C(=O)N[C@@H](Cc1c[nH]c2ccccc12)C(=O)N[C@@H](Cc1ccccc1)C(=O)N[C@@H](C)C(=O)N[C@@H](Cc1ccccc1)C(=O)N[C@@H](CCC(N)=O)C(=O)N[C@@H](CCCNC(=N)N)C(=O)N[C@@H](CCCNC(=N)N)C(=O)N[C@@H](C)C(=O)NCCOCCOCC(=O)N[C@@H](CCCCNC(=O)c1ccc2c(c1)C(=O)OC21c2ccc3cc(O)ccc3c2Oc2c1ccc1cc(O)ccc21)C(N)=O [pBCP427-4Ala] |  | 18% and 18 ± 2% | 
27 | Ac-CWSNWCFQRRC (Ac-CWSNWCFQRRC-{AEEA-Lys(NF)-NH2}; linker 1-6-11 via Bi (inferred)) [pBCP427-5] |  | 76 ± 1% | 
28 | HS-CH2-CO-rRrRC(Bta)φC [BCP15] |  | 108 ± 4% | 
29 | Ac-CRRRφCF(dNle)QWC [BCP9A5-2] |  | 43 ± 2% | 
30 | Ac-CFΦRrRCAAC [BCP13] | 30 ± 3% |  | 
31 | HS-CH2-CO-φSNφFCfQrRC [BCP427-2] |  | 118 ± 4% | 
32 | Ac-CfΦRrCRrC [BCP10] | 56 ± 32% |  | 
33 | Ac-CFΦRRRRCAAAC [BCP11] | 13% |  | 
34 | HS-CH2-CO-rRrRCΦφC [BCP14] |  | 86 ± 2% | 
35 | Ac-CrRrRCΦfC [BCP4] | 51 ± 16% | 51 ± 16% | 
36 | CRRRRCWYWC (Ac-CRRRRCWYWC-{AEEA-Lys(dye)-NH2}; linker 1-6-10 via Bi (inferred); reading uncertain) [pBCP1] | 12 ± 4% |  | MFI^TMR (Total Cellular Uptake) [2]: 9.3 ± 1.9%
37 | CFFFRRRCRAC (Ac-CFFFRRRCRAC-{AEEA-Lys(dye)-NH2}; linker 1-8-11 via Bi (inferred); reading uncertain) [pBCP17] | 15 ± 1% |  | 
38 | CWYRRRCRAC (Ac-CWYRRRCRAC-{AEEA-Lys(dye)-NH2}; linker 1-7-10 via Bi (inferred); reading uncertain) [pBCP9] | 12 ± 4% |  | 
39 | HS-CH2-CO-rRrRcΦ(Bta)φC [BCP16a] |  | 156% and 156 ± 4% | cytosolic entry efficiency in the presence of 10% FBS ([1]; 2 μM NF-labeled peptide): 821%
40 | HS-CH2-CO-rRrRCφ(Bta)φC [BCP16b] |  | 98% and 98 ± 1% | cytosolic entry efficiency in the presence of 10% FBS ([1]; 2 μM NF-labeled peptide): 169%
41 | Ac-CFΦCRRRRC [BCP1] |  |  | MFI^TMR (Total Cellular Uptake) [2]: 12 ± 2%
42 | Ac-CWSQWFCFQRRC (Ac-CWSQWFCFQRRC-{AEEA-Lys(NF)-NH2}; linker 1-7-12 via Bi (inferred)) [pBCP427-7] |  | 69 ± 3% | 
